Results: patent publication US20160250177A1, “MODIFIED DOCETAXEL LIPOSOME FORMULATIONS AND USES THEREOF” (MALLINCKRODT LLC, priority 2015, published 2016)
Where two headings read alike, the source gives them in different places.

What was measured:
[1] = human, in vivo; for AUC(0-inf) / AUC/Dose / CL / Cmax/Dose / Vss: iv
[2] = system: human PC3 (prostate) tumor xenograft; experiment: Antitumor activity, single IV dose, PC3 xenograft; conditions: for Partial Tumor Regression (%) / TGD / TGD (%) / TGI (%) / median survival: single IV
Experimental: Tumor cell lines were implanted subcutaneously into the flank of nude (immunodeficient) mice and allowed to grow to a fixed size. […] In each case, where possible, doses were selected as providing equivalent levels of toxicity/tolerance. […] Tumor volume was analyzed to determine tumor growth delay (TGD) and partial regression. Mice were removed from the study if they lost 20% of their initial bodyweight or became moribund or if their tumor volume exceeded 2500 mm^3 or the tumor ulcerated. If less than half of the initial cohort of mice remained, that group was no longer graphed or included in further tumor analysis. However, any remaining animals were followed until completion of the in-life observation period and included in a survival analysis.

[3] = cited from earlier work
[4] = system: PC3 human prostate xenograft; conditions: for median survival: docetaxel
Experimental: In another study, athymic male nude mice bearing PC3 human prostate xenograft were given two or four intravenous (IV) doses of PEGylated TD-1 liposome, Taxotere® or saline. Dosing intervals were twenty-one days for two cycles or every four days for four cycles.
Tumor volume was measured 2-3 times per week using the Biopticon tumor imaging system and tumor volume data was analyzed to determine TGD and partial tumor regression. Survival analysis was conducted and median survival time determined.

[5] = clinical; conditions: human, in vivo, iv
[6] = Tissue distribution in mice with A549 xenograft; conditions: for Kidney AUC of docetaxel / Liver AUC of docetaxel / Lung AUC of docetaxel / Muscle AUC of docetaxel / Spleen AUC of docetaxel / Tumor AUC of docetaxel: single IV
Experimental: The plasma pharmacokinetics and distribution were studied in female athymic nude mice each implanted subcutaneously with A549 cells (human non-small cell lung cancer). Once tumors reached a volume of 100-300 mm^3, animals were randomized into 4 groups.
Three animals were sacrificed at 1, 4, 24, 72 (3 days), 168 (7 days), 216 (9 days), 336 (14 days), 432 (18 days) and 504 hours (21 days) post injection.

[7] = high dose Taxotere® 100 mg/m^2, van Oosterom 1995

Compound: distearoyl-phosphatidylethanolamine-N-[methoxy(polyethene glycol)-2000] [DSPE(PEG-2000)]
- CL (mean) [1]: 0.025 L/h/m^2
- Vss (mean) [1]: 1.409 L/m^2
- dose proportionality for Cmax and AUCinf [1]: demonstrate dose proportionality

Compound: CC(=O)O[C@@]12CO[C@@H]1C[C@H](O)[C@@]1(C)C(=O)[C@H](O)C3=C(C)[C@@H](OC(=O)[C@H](O)[C@@H](NC(=O)OC(C)(C)C)c4ccccc4)C[C@@](O)([C@@H](OC(=O)c4ccccc4)[C@H]21)C3(C)C [Docetaxel, docetaxel]
- Partial Tumor Regression (%) ([2]; docetaxel 9 mg/kg): 0%
- TGD ([2]; docetaxel 9 mg/kg): 11
- TGD (%) ([2]; docetaxel 9 mg/kg): 42%
- TGI (%) ([2]; docetaxel 9 mg/kg): 38%
- median survival ([2]; docetaxel 9 mg/kg): 47 days
- Partial Tumor Regression (%) ([2]; docetaxel 18 mg/kg): 33%
- TGD ([2]; docetaxel 18 mg/kg): 41
- TGD (%) ([2]; docetaxel 18 mg/kg): 154%
- TGI (%) ([2]; docetaxel 18 mg/kg): 91%
- median survival ([2]; docetaxel 18 mg/kg): 81 days
- Partial Tumor Regression (%) ([2]; docetaxel 27 mg/kg): 60%
- TGD ([2]; docetaxel 27 mg/kg): 42
- TGD (%) ([2]; docetaxel 27 mg/kg): 157%
- TGI (%) ([2]; docetaxel 27 mg/kg): 98%
- median survival ([2]; docetaxel 27 mg/kg): 84 days
- tumor growth ([2]; docetaxel 18 and 27 mg/kg): inhibited tumor growth
- survival compared to saline ([2]; docetaxel 18 and 27 mg/kg, all doses of TD-1 liposomes and PEGylated TD-1 liposomes, p<0.05, Mantel-Cox log-rank): increased survival significantly more than saline
- CL (mean) [1]: 14.13 L/h/m^2
- Cmax and AUC with respect to dose [1]: remained linear with respect to dose
- Vss (mean) [1]: 458.8 L/m^2
- dose proportionality for Cmax and AUCinf [1]: demonstrate dose proportionality
- AUC(0-inf) ([1]; 3 mg/m2): 225 ng·h/mL
- AUC(0-inf) ([1]; 6 mg/m2): 265 ng·h/mL
- AUC(0-inf) ([1]; 12 mg/m2): 721 ng·h/mL
- AUC/Dose ([1]; 12 mg/m2): 60.1 m^2 · ng · h/ml/mg
- CL ([1]; 12 mg/m2): 16.92 l/h/m^2
- Cmax/Dose ([1]; 12 mg/m2): 6.22 m^2 · ng/ml/mg
- Vss ([1]; 12 mg/m2): 257.1 l/m^2
- AUC(0-inf) ([1]; 24 mg/m2): 4899 ng·h/mL
- AUC(0-inf) ([1]; 48 mg/m2): 5297 ng·h/mL
- AUC/Dose ([1]; 48 mg/m2): 110.4 m^2 · ng · h/ml/mg
- CL ([1]; 48 mg/m2): 13.29 l/h/m^2
- Cmax/Dose ([1]; 48 mg/m2): 3.90 m^2 · ng/ml/mg
- Vss ([1]; 48 mg/m2): 705.3 l/m^2
- AUC(0-inf) ([1]; 80 mg/m2): 4798 ng·h/mL
- AUC(0-inf) ([1]; 120 mg/m2): 28103 ng·h/mL
- AUC/Dose ([1]; 120 mg/m2): 234.2 m^2 · ng · h/ml/mg
- CL ([1]; 120 mg/m2): 7.15 l/h/m^2
- Cmax/Dose ([1]; 120 mg/m2): 5.85 m^2 · ng/ml/mg
- Vss ([1]; 120 mg/m2): 292.5 l/m^2
- AUC(0-inf) ([1]; 160 mg/m2): 16518 ng·h/mL
- AUC/Dose ([1]; 225 mg/m2): 150.8 m^2 · ng · h/ml/mg
- CL ([1]; 225 mg/m2): 6.75 l/h/m^2
- Cmax/Dose ([1]; 225 mg/m2): 4.64 m^2 · ng/ml/mg
- Vss ([1]; 225 mg/m2): 413.4 l/m^2
- AUC/Dose ([1]; 320 mg/m2): 117.6 m^2 · ng · h/ml/mg
- CL ([1]; 320 mg/m2): 9.14 l/h/m^2
- Cmax/Dose ([1]; 320 mg/m2): 5.43 m^2 · ng/ml/mg
- Vss ([1]; 320 mg/m2): 404.0 l/m^2
- reported t1/2 ([3]; Taxotere® (docetaxel), Clarke & Rivory 1999, Prescribing Information): 12 h
- docetaxel Cmax [3, 7]: 2680 ng/mL
- docetaxel half-life [3, 7]: 10 to 19 h
- docetaxel Cmax associated with increased incidence of adverse effects ([3]; plasma, therapeutic window, FIG. 2): above 0.64 μg/ml
- growth of PC3 human prostate xenograft (mean tumor volume over time) ([4]; IV administration, FIG. 8A): dose dependently inhibited growth
- Partial Tumor Regression (%) ([4]; docetaxel 5 mg/kg (q4dx4)): 0%
- TGD ([4]; docetaxel 5 mg/kg (q4dx4)): 34 days
- TGD (%) ([4]; docetaxel 5 mg/kg (q4dx4)): 213%
- Partial Tumor Regression (%) ([4]; docetaxel 10 mg/kg (q4dx4)): 80%
- TGD ([4]; docetaxel 10 mg/kg (q4dx4)): 69 days
- TGD (%) ([4]; docetaxel 10 mg/kg (q4dx4)): 431%
- Partial Tumor Regression (%) ([4]; docetaxel 30 mg/kg (q21dx2)): 100%
- TGD ([4]; docetaxel 30 mg/kg (q21dx2)): 73 days
- TGD (%) ([4]; docetaxel 30 mg/kg (q21dx2)): 456%
- Partial Tumor Regression (%) ([4]; docetaxel 60 mg/kg (q21dx2)): 100%
- TGD ([4]; docetaxel 60 mg/kg (q21dx2)): 86 days
- TGD (%) ([4]; docetaxel 60 mg/kg (q21dx2)): 538%
- median survival ([4]; 1st dose group listed (5 mg/kg q4dx4 by order of Table 8)): 62 days
- median survival ([4]; 2nd dose group listed (10 mg/kg q4dx4 by order of Table 8)): 88 days
- median survival ([4]; 3rd dose group listed (30 mg/kg q21dx2 by order of Table 8)): 93 days
- median survival ([4]; 4th dose group listed (60 mg/kg q21dx2 by order of Table 8)): 107 days
- Cmax ([5]; 3 mg/m2): 15.5 ng/mL
- half-life ([5]; 3 mg/m2, t1/2): 14 h
- Cmax ([5]; 6 mg/m2): 36.3 ng/mL
- half-life ([5]; 6 mg/m2, t1/2): 9.32 h
- Cmax ([5]; 12 mg/m2): 74.7 ng/mL
- half-life ([5]; 12 mg/m2, t1/2): 12.3 h
- Cmax ([5]; 24 mg/m2): 149 ng/mL
- half-life ([5]; 24 mg/m2, t1/2): 55.3 h
- Cmax ([5]; 48 mg/m2): 187 ng/mL
- half-life ([5]; 48 mg/m2, t1/2): 73.5 h
- Cmax ([5]; 80 mg/m2): 307 ng/mL
- half-life ([5]; 80 mg/m2, t1/2): 28.8 h
- Cmax ([5]; 120 mg/m2): 702 ng/mL
- half-life ([5]; 120 mg/m2, t1/2): 45.8 h
- Cmax ([5]; 160 mg/m2): 879 ng/mL
- half-life ([5]; 160 mg/m2, t1/2): 51.1 h
- AUC(0-inf) ([5]; 190 mg/m2): 18800 ng·h/mL
- Cmax ([5]; 190 mg/m2): 1130 ng/mL
- half-life ([5]; 190 mg/m2, t1/2): 51.9 h
- AUC(0-inf) ([5]; 225 mg/m2): 33900 ng·h/mL
- Cmax ([5]; 225 mg/m2): 1040 ng/mL
- half-life ([5]; 225 mg/m2, t1/2): 61.8 h
- AUC(0-inf) ([5]; 270 mg/m2): 26200 ng·h/mL
- Cmax ([5]; 270 mg/m2): 1190 ng/mL
- half-life ([5]; 270 mg/m2, t1/2): 35.5 h
- AUC(0-inf) ([5]; 320 mg/m2): 37600 ng·h/mL
- Cmax ([5]; 320 mg/m2): 1740 ng/mL
- half-life ([5]; 320 mg/m2, t1/2): 40.8 h
- AUC(0-inf) ([5]; 380 mg/m2): 107000 ng·h/mL
- Cmax ([5]; 380 mg/m2): 2900 ng/mL
- half-life ([5]; 380 mg/m2, t1/2): 67.7 h
- Kidney AUC of docetaxel ([6]; docetaxel 30 mg/kg): 28 µg·h/g
- Liver AUC of docetaxel ([6]; docetaxel 30 mg/kg): 10 µg·h/g
- Lung AUC of docetaxel ([6]; docetaxel 30 mg/kg): 86 µg·h/g
- Muscle AUC of docetaxel ([6]; docetaxel 30 mg/kg): 23 µg·h/g
- Spleen AUC of docetaxel ([6]; docetaxel 30 mg/kg): 77 µg·h/g
- Tumor AUC of docetaxel ([6]; docetaxel 30 mg/kg): 276 µg·h/g
- time tumor retained measurable levels of docetaxel ([6]; docetaxel 50 mg/kg): 216 h
- Kidney AUC of docetaxel ([6]; docetaxel 50 mg/kg): 179 µg·h/g
- Liver AUC of docetaxel ([6]; docetaxel 50 mg/kg): 37 µg·h/g
- Lung AUC of docetaxel ([6]; docetaxel 50 mg/kg): 211 µg·h/g
- Muscle AUC of docetaxel ([6]; docetaxel 50 mg/kg): 64 µg·h/g
- Spleen AUC of docetaxel ([6]; docetaxel 50 mg/kg): 162 µg·h/g
- Tumor AUC of docetaxel ([6]; docetaxel 50 mg/kg): 442 µg·h/g
- time after which docetaxel concentrations fell below the limits of quantitation in most tissues ([6]; docetaxel 50 mg/kg, all tissues except tumor): 24 h
- time after which tumor levels of docetaxel fell below the levels of quantitation (1.0 μg/g) ([6]; intravenous injection of docetaxel): nine
